{"source": "patent US11899025B2", "about": "“Pharmaceutical composition for preventing or treating neurodegenerative diseases comprising COX2 acetylating agent as active ingredient” (KYUNGPOOK NATIONAL UNIVERSITY INDUSTRY-ACADEMIC COOPERATION …, priority 2018, dated 2024)", "biological_target": "T1, COX2 (Mus musculus, UniProt Q05769)", "T1 construct": "endogenous in cells; host or cells: primary neurons from mouse cerebrum", "T1 sequence (Q05769 18-604)": "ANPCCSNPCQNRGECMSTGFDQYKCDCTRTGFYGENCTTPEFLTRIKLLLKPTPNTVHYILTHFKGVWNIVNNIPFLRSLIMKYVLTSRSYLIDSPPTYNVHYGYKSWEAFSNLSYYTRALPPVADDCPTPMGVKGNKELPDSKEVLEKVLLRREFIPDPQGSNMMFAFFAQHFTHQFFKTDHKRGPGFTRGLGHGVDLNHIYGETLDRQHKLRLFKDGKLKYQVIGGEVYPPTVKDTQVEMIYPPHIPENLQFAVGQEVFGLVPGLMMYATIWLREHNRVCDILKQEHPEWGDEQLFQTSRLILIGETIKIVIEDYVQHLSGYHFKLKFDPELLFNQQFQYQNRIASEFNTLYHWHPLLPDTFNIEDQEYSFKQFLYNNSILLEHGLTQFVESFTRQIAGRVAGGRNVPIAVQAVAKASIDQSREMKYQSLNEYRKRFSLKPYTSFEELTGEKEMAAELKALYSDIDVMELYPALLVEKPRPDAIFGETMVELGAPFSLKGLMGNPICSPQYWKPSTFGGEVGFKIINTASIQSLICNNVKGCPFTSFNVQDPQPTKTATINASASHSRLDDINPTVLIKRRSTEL", "experiment": "COX2 acetylation analysis with [14C]N-acetyl sphingosine", "type": "cell-based", "settings": "2 uCi [14C]N-acetyl sphingosine; FIG. 8c", "description": "In order to measure the neuroinflammatory resolution factor, after culturing neurons from mouse cerebrum, CM was prepared by treatment with 10 nM N-acetyl sphingosine 1 phosphate (Toronto Research chemicals, C262710) and N-acetyl sphingosine (Sigma, 01912). For COX2 acetylation analysis, neurons were cultured from mouse cerebrum and then treated with 2 uCi [^14C]N-acetyl sphingosine (ARC, ARC1024). In addition, for in vivo experiments, 7-month-old APP/PS1 mice were injected with 5 mg/kg N-acetyl sphingosine (Sigma, 01912), 1 mg/kg FTY720 and 3 uM S1P daily for 4 weeks via intraperitoneal injection. 1 month-old NPC mice were injected with 5 mg/kg N-acetyl sphingosine (Sigma, 01912) and 2-month-old FUS mice with 30 mg/kg N-acetyl sphingosine (Sigma, 01912) daily for 4 weeks via subcutaneous injection.\nNext, it was confirmed using N-acetyl sphingosine with C^14 attached to confirm whether the secretion of the neuroinflammatory resolution factor by the compounds was due to the increase in COX2 acetylation,\nIn addition, it was confirmed that serine 565 (S565) against the COX2 peptide 560-[…]-575 was acetylated in the presence of N-acetyl sphingosine (FIG. 8d)."}
{"compound": "CCCCCCCCCCCCC/C=C/[C@@H](O)[C@H](CO)NC(C)=O", "note": "[N-acetyl sphingosine]", "values": [{"measurement": "COX2 acetylation compared with the sample of SphK1, acetyl-CoA and sphingosine", "result": "more acetylation"}]}
